In patent publication US7144862B2, “Orally administered peptides to ameliorate atherosclerosis” (The Regents of the University of California, priority 2000, dated 2006):
Several values for one entry are separate records, joined by “and”; a condition that tells them apart may be missing. Equal entries are not always repeated.

Key:
[1] = test system: mice infected with Influenza A virus; assay type: in vivo, mouse; conditions: 20 micrograms daily injected after infection
[2] = test system: LDL receptor null mice on a Western diet; assay: Aortic root lesions, oral gavage twice daily for 6 weeks; assay type: in vivo, mouse; conditions: oral gavage twice daily for 6 weeks (2.5 mg in liposomes)
Description: Groups of LDL receptor null mice were placed on a Western diet and were given by oral gavage, 100 μl of saline alone (Saline), n=4 animals, or 100 μl of liposomes without D-4F (Liposomes), n=5 animals, or 2.5 mg D-4F peptide in 100 μl liposomes (D-4F in liposomes), n=6 animals, twice daily for 6 weeks. The mice were bled, and subsequently sacrificed, aortic root fixed, sectioned and the extent of Oil Red O staining in fatty streak lesions quantified.
Female LDL receptor null or apo E null mice on a C57BL/6J background were purchased from the Jackson Laboratory, Bar Harbor, Me. The LDL receptor null mice were maintained on Purina chow diet (Ralston Purina Co.) until they were 4 weeks old when they were switched to a Western diet (Teklad, Madison, Wis., diet # 88137) for 6 weeks. The apo E null mice were maintained on Purina chow diet throughout the study LDL receptor null mice received the test peptide or a vehicle control by gastric gavage twice daily for the periods indicated in the figure legends. […]
Mice were bled under anesthesia from the retro-orbital venous plexus, in accordance with protocols approved by the UCLA Animal Research Committee. Atherosclerotic lesions were measured as previously described^9.

[3] = Plasma total and HDL cholesterol after oral D-4F; assay type: in vivo, mouse; conditions: for Mean HDL-cholesterol / plasma total cholesterol concentration: apo E null mice
Description: Protein (Navab et al. (2000) J Lipid Res. 41: 1481–1494) and cholesterol (Van Lenten et al. (2001) Circulation, 103: 2283–2288) content of lipoproteins and statistical analyses were performed as described by Van Lenten et al. (2001) Circulation, 103: 2283–2288, with significance defined as P<0.05.

[4] = test system: human artery wall cell cocultures; assay: Lipoproteins from mice given peptide by gavage tested in human artery wall cell cocultures (monocyte chemotactic activity); conditions: 4F, 100 μg by oral gavage, LDL receptor deficient mice, blood after 6 hrs
Description: Groups of LDL receptor-deficient mice (n=3) were administered the D-peptides or the saline vehicle by gavage. […] Blood was collected from retroorbital sinus under mild anesthesia 17 hrs later. LDL was isolated from plasma by FPLC. Cocultures of artery wall cells were incubated with medium alone (NO ADDITION), control LDL from normal subjects (LDL), LDL plus control HDL from normal subjects (+HDL). […] The cocultures were incubated for 4 hrs at 37° C. in the presence of 10% LPDS. The supernatants were then discarded, the cocultures were washed and incubated with culture medium without serum or LPDS for an additional 4 hrs. This conditioned medium was collected and analyzed for monocyte chemotactic activity. The values are mean±SD of quadruplicate cocultures.
Blood was collect after 6 hrs, plasma HDL and LDL were isolated by gel filtration (FPLC) and examined in the cocultures. […] Human LDL at 200 μg protein/ml was added to human artery wall cell cocultures together with human HDL (hHDL) at 350 μg protein/ml or mouse HDL (mHDL) at 100 μg cholesterol/ml taken from mice that received saline (Saline Rx) or L-4F (L-4F Rx) or D-4F (D-4F Rx) and monocyte chemotactic activity was determined as described herein. […] On the right, mouse LDL (mLDL) was isolated from mice receiving saline (Saline Rx) or L-4F (L4F Rx) or D-4F (D-4F Rx) and was added at 100 μg cholesterol/ml to the artery wall cell cocultures without HDL and monocyte chemotactic activity determined. Values are mean±SD) for four wells in two independent experiments.
Either saline or 2F synthesized from D amino acids or from L amino acids was instilled in the stomachs of mice by gavage (instillation in the stomach by tube). After gavage the mice were bled and their LDL isolated and added to the human artery wall cell cocultures.
The animals were bled 1.5, 3 or 6 hours later and their HDL, LDL, and VLDL/IDL isolated.
Human aortic endothelial and smooth muscle cells were isolated and cultured as previously described (Id.). Cellular oxidation of LDL in the presence and absence of HDL was determined as described (Id.). Human blood monocytes were isolated after obtaining informed consent and monocyte chemotaxis was determined as described previously^5.

[5] = Non-denaturing PAGE, self-association; assay type: physicochemical; conditions: 100 and 250 μg/ml
Description: Non-denaturing and SDS-PAGE and was carried out using the method of Laemmli (1970) Nature 227: 680–685. Premade Novex gels were used and the gel was stained with Coomassie blue to identify the protein bands.

[6] = Solubility in PBS; assay type: physicochemical; conditions: in PBS
Description: The peptides were purified on a preparative Vydac C4 column by reversed-phase (RP)-HPLC using water (with 0.1% trifluoroacetic acid) and acetonitrile (0.1% trifluoroacetic acid). The purity and the retention times of the peptides were determined on an analytical Vydac C18 column using a gradient of 25%-58% acetonitrile in water containing 0.1% TFA. The purity of these peptides was also confirmed by mass spectrometry. The mass was in agreement with the calculated molecular weight. Although both the 3F peptides and 4F have additional Phe residues compared to 2F, the retention times of these peptides on the C18 column are not very different (˜22 min). A sudden increase in the retention time is apparent with 5F, 6F and 7F (˜26 min). With increasing number of Phe residues, the solubility of these peptides in PBS decreases.

[7] = Surface pressure measurements: monolayer exclusion pressure; assay type: physicochemical; conditions: EPC monolayer; reproducibility ± 1 dyn/cm
Description: An insoluble monolayer of egg phosphatidylcholine (EPC) was spread at the air-water interface in a Teflon dish at room temperature to give an initial surface pressure (πi) in the range of 5–45 dyn/cm. A solution of peptides in PBS containing 1.5M Gdn. HCl was carefully injected in to the subphase to give a final concentration of 50 μg/dL. The Gdn. HCl was diluted in the subphase to a final concentration of ≦1 mM to allow the peptides to renature. The subphase was stirred continuously and the increase in EPC monolayer surface pressure (Δπ) was recorded until a steady state value was obtained. The value of the initial surface pressure (πi) at which the peptides no longer penetrate the EYPC monolayer i.e. the exclusion pressure (πe), was calculated by extrapolating the πi vs Δπ linear regression fit to Δπ=0 dyn/cm.

[8] = test system: C57 BL6 mice; assay: Diet-induced lesion formation with 2F; assay type: in vivo, mouse
Description: It follows that in this mouse model, inhibition of LDL-induced monocyte chemotaxis is more anti-atherogenic than LCAT activation. Since the peptides 2F and 4F are similar in activating LCAT, and 4F and 5F are similar in removing “seeding molecules” from LDL, the peptide 4F may serve as a reagent to distinguish between the importance of LCAT activation and the inhibition of LDL-induced monocyte chemotaxis in different atherosclerosis-sensitive mouse models. If the inhibition of LDL-induced chemotaxis is more important than the LCAT-activating ability, then 4F should be better peptide to use as an inhibitor of atherosclerosis since this peptide is more soluble than the peptides 5F, 6F and 7F.

[9] = DSC, bilayer to hexagonal phase transition of DiPoPE; assay type: physicochemical; conditions: heating scan rate 37°/h
Description: (§1) A known amount of phospholipid was dissolved in chloroform. For one set of samples, peptide was dissolved in methanol and added to a solution of DiPoPE in chloroforn/methanol (2:1, v:v). For both, pure lipid samples and the organic solutions of lipid and peptide, solvent was removed under a slow stream of nitrogen. Residual solvent was removed under vacuum. […] For DMPC, four consecutive scans with a 60 minute equilibration time between scans were taken. DSC thermograms were analyzed using the software provided by MicroCal Inc., Amherst, Mass., and Origin, version 5.0.
In the current study we prepared the peptide-lipid mixtures in two ways. One was by adding the peptide in organic solvent to the lipid in organic solvent followed by depositing the material as a film and subsequently hydrating with buffer. In the other method, the peptide and lipid were mixed after each was hydrated separately. If the mixture comes to equilibrium prior to the DSC analysis, it should not matter how the peptide and lipid are originally mixed. However, membrane systems can equilibrate slowly, in which case there may be more peptide in the lipid when it was incorporated at high concentrations into the lipid film.

[10] = Right angle light scattering, dissolution of EPC MLVs; assay type: physicochemical; conditions: 105 μM EPC, equimolar peptide, 25° C., 30 min
Description: EPC MLVs were prepared by evaporating a solution of EPC (Avanti Polar, AL) under nitrogen and hydrating the lipid film with phosphate-buffered saline (pH 7.4). […] Turbidity clarification was monitored for 30 min.

[11] = test system: human artery wall cell cocultures; assay: LDL-induced monocyte chemotactic activity with the homologous series of peptides (Example 3); assay type: cell-based; conditions: peptide at 100 μg/ml, LDL 250 μg protein/ml, 8 h
Description: Microtitre plates were treated with 0.1% gelatin at 37° C. overnight. HASMC were added at a confluent density of 1×10^5 cells/cm^2. […] HAEC were subsequently added at 2×10^5 cells/cm^2 and were allowed to grow, forming a complete monolayer of confluent HAEC in two days. In all experiments, HAEC and autologous HASMC (from the same donor) were used at passage levels of four to six. […] The cocultures were treated with native LDL(250 μg protein/ml) or presence of HDL (350 μg protein/ml) or peptides for 8 h.

[12] = DSC, chain melting transition of DMPC; assay type: physicochemical; conditions: DMPC/peptide 100:1 (mol/mol)
Description: as §1
The effect of these 18A analogues on the chain melting transition of multilamellar vesicles of DMPC was studied by DSC using peptide-lipid mixtures at 100:1 lipid/peptide molar ratio.

[13] = Circular dichroism, percent helicity; assay type: physicochemical
Description: Briefly, spectra were obtained using a cell with a 0.1 cm path length and measurements were taken every nm from 260 nm to 190 nm at 25° C. All the CD spectra were signal averaged by adding four scans, base line corrected and smoothed. Peptide solutions in PBS, pH 7.4, were used at a concentration of 11 μM. Peptide-DMPC complexes (1:20 mol:mol) were used to determine the effect of lipid binding on the helicity of these peptides. These complexes were prepared by adding the appropriate volume of peptide solution to DMPC multilamellar vesicles. DMPC multilamellar vesicles were prepared as follows: A known amount of lipid was dissolved in ethanol and the solvent was removed by evaporating slowly under a thin stream of nitrogen. Residual solvent was removed by storing the lipid film under vacuum overnight. An appropriate volume of PBS, pH 7.4 was added to the thin lipid film to give the required final concentration of DMPC.

[14] = LDL receptor null mice, Western diet, gavage twice daily 6 weeks
[15] = 2.5 mg/mouse/day in drinking water
[16] = 5.0 mg/mouse/day in drinking water

## CC(=O)N[C@H](CC(=O)O)C(=O)N[C@H](Cc1c[nH]c2ccccc12)C(=O)N[C@H](Cc1ccccc1)C(=O)N[C@H](CCCCN)C(=O)N[C@H](C)C(=O)N[C@H](Cc1ccccc1)C(=O)N[C@H](Cc1ccc(O)cc1)C(=O)N[C@H](CC(=O)O)C(=O)N[C@H](CCCCN)C(=O)N[C@@H](C(=O)N[C@H](C)C(=O)N[C@H](CCC(=O)O)C(=O)N[C@H](CCCCN)C(=O)N[C@H](Cc1ccccc1)C(=O)N[C@H](CCCCN)C(=O)N[C@H](CCC(=O)O)C(=O)N[C@H](C)C(=O)N[C@H](Cc1ccccc1)C(N)=O)C(C)C [Peptide D-4F, Ac-D-W-F-K-A-F-Y-D-K-V-A-E-K-F-K-E-A-F-NH2]
[1]
  biologically active oxidized phospholipids in the aorta after influenza A infection: not generated beyond background
  plasma paraoxonase levels after influenza A infection: did not fall
[2]
  reduction in atherosclerotic lesions: 79% and 81%
[3]; [14]
  Total cholesterol: 761 ± 69 mg/dL
  mean HDL-cholesterol level: 73 ± 8.7 mg/dL
[3]; [15]
  Mean HDL-cholesterol: 38.7 ± 5 mg/dL
  plasma total cholesterol concentration: 534 ± 12.3 mg/dL
[3]; [16]
  Mean HDL-cholesterol: 43.4 ± 6 mg/dL
  plasma total cholesterol concentration: 579 ± 4.6 mg/dL
[4]
  HDL protective capacity: enhance HDL protective capacity
  LDL-induced monocyte chemotactic activity (mouse LDL): decrease LDL-induced monocyte chemotactic activity

## Ac-DWLKAFYDKVAEKLKEAF-NH2 [Peptide 2F, Ac-D-W-L-K-A-F-Y-D-K-V-A-E-K-L-K-E-A-F-NH2]
[5]
  self-association on non-denaturing PAGE: forms aggregates in a concentration dependent manner
[6]
  Solubility: >2000 µg/mL
[6]; read-out: Solubility
  solubility: 1250 to 1400 µg/mL
[7]
  Monolayer Exclusion Pressure(πc): 38 dyn/cm
[8]; 2F-administered mice, n=15, PBS control 14.7±1.8
  mean lesion area: 13.2±1.7 μm^2×10^−3
[8]; C57 BL6 mice
  inhibition of diet-induced lesion formation: did not significantly inhibit diet-induced lesion formation
[9]
  shift in TH of DiPoPE with mol fraction of peptide: linear increase in TH
[10]
  clarification of EPC MLVs: clarified the EPC MLVs to a similar extents
[11]
  inhibition of LDL-induced monocyte chemotaxis: some inhibitory activity
[12]; 1.5 mM DMPC, chain melting transition temperature
  TCM(° C.): 23.2 °C
[12]; enthalpy of the transition
  ΔHCM (kcals/mol): 4.5 kcals/mol
[12]; width at half maximum of the transition
  ΔT1/2 (° C.): 0.5 °C
[13]; 11 μM peptide in PBS
  Percent Helicity PBS: 55%
[13]; 11 μM peptide, Peptide: DMPC 1:20 (mol/mol)
  Percent Helicity DMPC: 72%
